According to ChEMBL document CHEMBL5108051, “Improving the Antimicrobial Performance of Amphiphilic Cationic Antimicrobial Peptides Using Glutamic Acid Full-Scan and Positive Charge Compensation Strategies” (J Med Chem, 2022):
Activity calls are given as the source filed them. The rule behind the calls is not given here. Bridge positions count the residues as written; N and C are the ends. Square brackets hold non-standard residues; d marks the D form. Peptide text beside a SMILES is read from it. * marks the point of attachment. X1 = CC[C@H](C)CCCCC(=O)*; Dab = NCC[C@H](N)C(=O)O

Columns and labels:
Staphylococcus aureus [1] = test: Antimicrobial activity against Staphylococcus aureus ATCC 25923 assessed as increase fold in increase MIC in presence of FeCl3; type: functional
Escherichia coli [2] = test: Antibiofilm activity against Escherichia coli ATCC 25922 assessed as inhibition of biofilm formation at 4 times MIC measured after 24 hrs by crystal violet staining based assay; type: functional, organism-based
[3] = Acute toxicity in BALB/c mouse lung assessed as congestion at 20 to 80 mg/kg, ip administered as single dose measured for 7 days by H and E staining method; type: organism-based; conditions: in vivo, 168 h, dose 20-80 mg/kg, time 7 day
Staphylococcus aureus [4] = test: Antimicrobial activity against Staphylococcus aureus ATCC 25923 assessed as fold increase in MIC in presence of KCl; type: functional
[5] = Acute toxicity in BALB/c mouse lung assessed as distortion of alveolar morphology at 20 to 80 mg/kg, ip administered as single dose measured for 7 days by H and E staining method; type: organism-based; conditions: in vivo, 168 h, dose 20-80 mg/kg, time 7 day
Staphylococcus aureus [6] = test: In vivo antimicrobial activity against Staphylococcus aureus ATCC 25923 infected in BALB/C mouse pulmonary infection model administered ip; type: functional, organism-based; conditions: dose 5-10 mg/kg, DDE = dose-dependent effect
Escherichia coli [7] = test: Bactericidal activity against Escherichia coli ATCC 25922 at 1 times MIC measured after 2 hrs by time-killing kinetics assay; type: functional
Escherichia coli [8] = test: Antibiofilm activity against Escherichia coli ATCC 25922 assessed as inhibition of biofilm formation at 2 times MIC measured after 24 hrs by crystal violet staining based assay; type: functional, organism-based
Staphylococcus aureus [9] = test: Antibacterial activity against Staphylococcus aureus ATCC 25923 assessed as inhibition of gentamicin resistance development measured after 15 passages in presence of gentamicin by resistance development assay; type: functional, organism-based
Staphylococcus aureus [10] = test: Antibacterial activity against Staphylococcus aureus ATCC 25923 assessed as inhibition of rifampin resistance development measured after 15 passages in presence of rifampin by resistance development assay; type: functional, organism-based
Escherichia coli [11] = test: Antimicrobial activity against Escherichia coli ATCC 25922 in presence of MgCl2; type: functional, organism-based
Staphylococcus aureus [12] = test: Antimicrobial activity against Staphylococcus aureus ATCC 25923 in presence of KCl; type: functional, organism-based
[13] = Acute toxicity in BALB/c mouse assessed as pathological changes in kidney at 20 to 80 mg/kg, ip administered as single dose measured for 7 days by H and E staining method; type: organism-based; conditions: in vivo, 168 h, dose 20-80 mg/kg, time 7 day
Escherichia coli [14] = test: Antibacterial activity against Escherichia coli ATCC 25922 assessed as inhibition of rifampin resistance development measured after 15 passages in presence of rifampin by resistance development assay; type: functional, organism-based
Staphylococcus aureus [15] = test: Antimicrobial activity against Staphylococcus aureus ATCC 25923 in presence of MgCl2; type: functional, organism-based
Escherichia coli [16] = test: Disruption of membrane integrity in Escherichia coli ATCC 25922 assessed as increase in nucleic acid leakage by measuring PI-uptake level by microplate reader assay; type: functional, organism-based
Staphylococcus aureus [17] = test: Disruption of membrane integrity in Staphylococcus aureus ATCC 25923 assessed as increase in nucleic acid leakage by measuring PI-uptake level by microplate reader assay; type: functional, organism-based
Escherichia coli [18] = test: Antibacterial activity against Escherichia coli ATCC 25922 assessed as inhibition of gentamicin resistance development measured after 15 passages in presence of gentamicin by resistance development assay; type: functional, organism-based
Staphylococcus aureus [19] = test: Antibacterial activity against Staphylococcus aureus ATCC 25923 infected in BALB/C mouse pulmonary infection model assessed as increase in dilation of alveoli in lung at 10 mg/kg, ip after 24 hrs by H and E staining method; type: functional, organism-based
Staphylococcus aureus [20] = test: Antibacterial activity against Staphylococcus aureus ATCC 25923 infected in BALB/C mouse pulmonary infection model assessed as increase in bacterial killing in lung at 10 mg/kg, ip after 24 hrs by H and E staining method; type: functional, organism-based
Escherichia coli [21] = test: Bactericidal activity against Escherichia coli ATCC 25922 at 2 times MIC measured after 30 mins by time-killing kinetics assay; type: functional; conditions: 0.5 h
[22] = Acute toxicity in BALB/c mouse spleen assessed as edema at 20 to 80 mg/kg, ip administered as single dose measured for 7 days by H and E staining method; type: organism-based; conditions: in vivo, 168 h, dose 20-80 mg/kg, time 7 day
Staphylococcus aureus [23] = test: Antimicrobial activity against Staphylococcus aureus ATCC 25923 in presence of NaCl; type: functional, organism-based
Staphylococcus aureus [24] = test: Antimicrobial activity against Staphylococcus aureus ATCC 25923 in presence of FeCl3; type: functional, organism-based
[25] = Acute toxicity in BALB/c mouse assessed as mortality at 20 mg/kg, ip administered as single dose measured for 7 days; type: organism-based; conditions: in vivo, 168 h, time 7 day
Escherichia coli [26] = test: Bactericidal activity against Escherichia coli ATCC 25922 at 2 times MIC measured after 1 hr by time-killing kinetics assay; type: functional
[27] = Acute toxicity in BALB/c mouse assessed as hyper-mobility at 10 to 20 mg/kg, ip administered as single dose measured for 7 days; type: organism-based; conditions: in vivo, 168 h, dose 10-20 mg/kg, time 7 day
Escherichia coli [28] = test: Antimicrobial activity against Escherichia coli ATCC 25922 assessed as reduction in survival rate in presence of 0.02 to 2000 microg/ml of chymotrypsin measured after 6 hrs; type: functional, organism-based
[29] = Acute toxicity in BALB/c mouse kidney assessed as edema at 10 to 40 mg/kg, ip administered as single dose measured for 7 days by H and E staining method; type: organism-based; conditions: in vivo, 168 h, dose 10-40 mg/kg, time 7 day
Escherichia coli [30] = test: Antimicrobial activity against Escherichia coli ATCC 25922 assessed as reduction in survival rate in presence of >= 0.02 microg/ml of chymotrypsin measured after 6 hrs; type: functional, organism-based
[31] = Acute toxicity in BALB/c mouse liver assessed as infiltration of inflammatory cells at 10 to 40 mg/kg, ip administered as single dose measured for 7 days by H and E staining method; type: organism-based; conditions: in vivo, 168 h, dose 10-40 mg/kg, time 7 day
[32] = Acute toxicity in BALB/c mouse lung assessed as constricted pulmonary alveoli at 10 to 40 mg/kg, ip administered as single dose measured for 7 days by H and E staining method; type: organism-based; conditions: in vivo, 168 h, dose 10-40 mg/kg, time 7 day
[33] = Acute toxicity in BALB/c mouse assessed as abdominal twitching at 10 to 20 mg/kg, ip administered as single dose measured for 7 days; type: organism-based; conditions: in vivo, 168 h, dose 10-20 mg/kg, time 7 day
[34] = Acute toxicity in BALB/c mouse assessed as ruffled hairs at 10 to 20 mg/kg, ip administered as single dose measured for 7 days; type: organism-based; conditions: in vivo, 168 h, dose 10-20 mg/kg, time 7 day
Escherichia coli [35] = test: Bactericidal activity against Escherichia coli ATCC 25922 at 0.5 times MIC measured after 1 hr by time-killing kinetics assay; type: functional
[36] = Acute toxicity in BALB/c mouse assessed as mortality at 40 mg/kg, ip measured within 10 mins; type: organism-based; conditions: in vivo
HK-2 = test: Cytotoxicity against human HK-2 cells assessed as reduction in cell viability at 0 to 128 uM incubated for 1 hr by Resazurin cell viability kit; type: toxicity, cell-based; conditions: hk-2, 1 h, dose 0-128 µM
[37] = Acute toxicity in BALB/c mouse spleen assessed as edema at 10 to 40 mg/kg, ip administered as single dose measured for 7 days by H and E staining method; type: organism-based; conditions: in vivo, 168 h, dose 10-40 mg/kg, time 7 day
[38] = Acute toxicity in BALB/c mouse assessed as pathological changes in liver at 10 to 40 mg/kg, ip administered as single dose measured for 7 days by H and E staining method; type: organism-based; conditions: in vivo, 168 h, dose 10-40 mg/kg, time 7 day

## CC[C@H](C)[C@H](NC(=O)[C@@H]1CCCN1C(=O)[C@H](CC(C)C)NC(=O)[C@@H](N)Cc1ccccc1)C(=O)N[C@H](C(=O)N[C@@H](C)C(=O)N[C@@H](CCCCN)C(=O)N[C@@H](CC(C)C)C(=O)N[C@@H](CC(C)C)C(=O)N[C@@H](CO)C(=O)NCC(=O)N[C@@H](CC(C)C)C(=O)N[C@@H](CC(C)C)C(N)=O)C(C)C (H-FLPIVAKLLSGLL-NH2)
Staphylococcus aureus [1]
  fold change (FC): 2
Escherichia coli [2]
  Activity: Active
[3]
  Activity: Toxic
Staphylococcus aureus [4]
  fold change (FC): 2
[5]
  Activity: Toxic

## CC(C)C[C@H](NC(=O)[C@H](CC(C)C)NC(=O)[C@H](CCC(=O)O)NC(=O)[C@H](CCCCN)NC(=O)[C@H](CC(C)C)NC(=O)[C@H](CC(C)C)NC(=O)[C@H](CCCCN)NC(=O)[C@H](C)NC(=O)[C@@H](NC(=O)[C@H](CCCCN)NC(=O)[C@@H]1CCCN1C(=O)[C@H](CC(C)C)NC(=O)[C@@H](N)Cc1ccccc1)C(C)C)C(N)=O (H-FLPKVAKLLKELL-NH2)
Staphylococcus aureus [6]
  Activity: Dde
Escherichia coli [7]
  Activity: 100%
Escherichia coli [8]
  Activity: Active
Staphylococcus aureus [9]
  Activity: Active
Staphylococcus aureus [10]
  Activity: Active
Escherichia coli [11]
  Activity: Active
Staphylococcus aureus [12]
  Activity: Active
[13]
  Activity: Non-Toxic
Escherichia coli [14]
  Activity: Active
Staphylococcus aureus [15]
  Activity: Active
Escherichia coli [16]
  Activity: Active
Staphylococcus aureus [17]
  Activity: Active
Escherichia coli [18]
  Activity: Active
Staphylococcus aureus [19]
  Activity: Active
Staphylococcus aureus [20]
  Activity: Active
Escherichia coli [21]
  Activity: 100%
[22]
  Activity: Toxic
Staphylococcus aureus [23]
  Activity: Active
Staphylococcus aureus [24]
  Activity: Active

## CC[C@H](C)CCCCC(=O)N[C@@H](CCN)C(=O)N[C@H](C(=O)N[C@@H](CCN)C(=O)N[C@H]1CCNC(=O)[C@H]([C@@H](C)O)NC(=O)[C@H](CCN)NC(=O)[C@H](CCN)NC(=O)[C@H](CC(C)C)NC(=O)[C@@H](Cc2ccccc2)NC(=O)[C@H](CCN)NC1=O)[C@@H](C)O (X1-[Dab]T[Dab][Dab][Dab][dF]L[Dab][Dab]T; lactam 4-C)
[25]
  Activity: Toxic
Escherichia coli [26]
  Activity: 100%
[27]
  Activity: Toxic
Escherichia coli [28]
  Activity: Active
[29]
  Activity: Non-Toxic
Escherichia coli [30]
  Activity: Active
[31]
  Activity: Non-Toxic
[32]
  Activity: Non-Toxic
[33]
  Activity: Toxic
[34]
  Activity: Toxic
Escherichia coli [35]
  Activity: 100%
[36]
  Activity: Toxic
HK-2
  Activity: Non-Toxic
[37]
  Activity: Non-Toxic
[38]
  Activity: Non-Toxic
